Assay [1] deals with T1, ferrochelatase variant P255R (Mus musculus, UniProt P22315, P308R).
T1 construct: In wild-type, murine, mature ferrochelatase, five tryptophan residues; penta-histidine tag (N); made in house; host or cells: E. coli BL21(DE3)
T1 sequence (P22315 54-422 P308R): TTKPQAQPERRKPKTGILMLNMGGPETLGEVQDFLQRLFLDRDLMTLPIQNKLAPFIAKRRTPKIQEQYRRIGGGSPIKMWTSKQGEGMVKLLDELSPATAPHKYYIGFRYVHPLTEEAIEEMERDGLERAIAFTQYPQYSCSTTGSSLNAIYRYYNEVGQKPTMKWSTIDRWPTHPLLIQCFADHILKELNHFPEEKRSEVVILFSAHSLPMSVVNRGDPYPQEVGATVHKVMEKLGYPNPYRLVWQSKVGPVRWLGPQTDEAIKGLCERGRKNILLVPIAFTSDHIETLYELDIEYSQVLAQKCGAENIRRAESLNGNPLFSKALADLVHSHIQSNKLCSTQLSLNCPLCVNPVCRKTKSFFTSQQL
Description: Transient kinetic analysis of NMPP inhibition (stopped-flow, zinc-protoporphyrin formation). The assay is classed as biochemical, murine. As for the experimental part: (§1) Enzyme (0.5 μM) was reacted with protoporphyrin (5 μM) and zinc-acetate (15 μM) in the presence of various concentrations of NMPP. The pseudo first-order rate constant k was obtained from analysis of the time course (see Materials and Methods and FIG. 4) and plotted against NMPP concentration. The enzymes used in each set were: A. wild-type ferrochelatase; B. variant P255R; C. variant P255G.
(§2) In order to obtain the pseudo first-order rate constants for NMPP binding, the kinetic traces for zinc-protoporphyrin formation in the presence of various concentrations of inhibitor were fitted to equation 3. […] The data were fit to equation 1 for a two step process:
(§3) [formula] where k is the pseudo first-order rate constant for the approach to the steady-state phase, I0 is the inhibitor concentration, S0 is the initial substrate concentration,
(§4) [formula] is the apparent inhibition constant, Ki^app, and k2 and k−2 are the second step forward and reverse rate constants, respectively. […] A two kinetic step process for binding of NMPP to either wild-type ferrochelatase or P255R (i.e., a fast, initial step for NMPP binding to the enzyme, followed by a slow step, possibly related to a conformational rearrangement of the protein-inhibitor complex) is consistent with the porphyrin-triggered conformational change of the active-site pocket deduced from the analysis of the crystal structure of B. subtilis ferrochelatase with bound N-methyl mesoporphyrin in comparison with that of the unliganded protein. […] Therefore the diminished inhibition of variant P255R by NMPP (Ki^app=1 μM vs. Ki^app=3 nM for wild-type ferrochelatase) cannot be accounted for by differences in these rates.
(§5) Transient Kinetic Analysis. The kinetic steps involved in NMPP binding to ferrochelatase were assessed using stopped-flow absorption spectroscopic analysis by monitoring the enzymatic reaction in the presence of various concentrations of the inhibitor NMPP. The reactions were performed using a rapid scanning stopped-flow spectrophotometer (model RSM-1000; OLIS Inc.), equipped with a stopped-flow mixer and an observation chamber with an optical path-length of 4 mm. The dead time of the instrument is ˜2 ms. Scan spectra spanning the wavelength range of 347 to 574 nm were collected at a rate of 1000 scan/sec. The syringes containing the reaction components and the stopped-flow cell were maintained at 30° C. using an external water-bath. The concentrations of reagents loaded into each syringe were two-fold greater than the final concentrations in the observation chamber. Enzymatic activity was monitored by following the increase in absorbance at 420 nm for zinc-protoporphyrin production using Zn^2+ and protoporphyrin as substrates.
(§6) The enzyme and substrate stock solutions were diluted in 100 mM Tris-acetate, pH 8.0, containing 0.5% Tween-80. The stock solutions for substrates and inhibitor were prepared as follows: A 3 mM zinc-acetate solution was made by dissolving zinc-acetate in distilled and deionized H2O. A 200 μM protoporphyrin solution was prepared by dissolving protoporphyrin 1× in 50 mM NH4OH containing 0.5% Tween-80. A 2 mM NMPP solution was prepared by dissolving NMPP in 100 mM NH4OH containing 0.5% Tween-80. Typically, a 2 mL solution that was 1 μM in ferrochelatase and 10 μM in protoporphyrin was pre-incubated on ice for 30 min. The porphyrin-enzyme solution was titrated with NMPP. The mixture was subsequently transferred to one of the stopped-flow syringes. The other stopped-flow syringe was loaded with a reaction buffer solution of ˜2 mL that was 30 μM in zinc-acetate. The enzymatic reaction was initiated by mixing the contents from both syringes and reaction progression was monitored by following the increase in absorbance at 420 nm. The data were analyzed by fitting the observed absorbance values to equation 4: […]

For another assay, the target named is T2, wild-type ferrochelatase (Mus musculus, UniProt P22315).
T2 construct: In wild-type, murine, mature ferrochelatase, five tryptophan residues; penta-histidine tag (N); made in house; host or cells: E. coli BL21(DE3)
T2 sequence (P22315 54-422): T1 sequence (P22315 54-422 P308R) with R255P
Described as above. The assay is classed as biochemical, murine. As to the method: as §1, §2, §3, §4, §5, §6

The mark [2] stands for this setting: two-step fit (equation 1), read-out: apparent inhibition constant Ki^app.

Residue numbers refer to the chain shown, from its start.

Regarding N-methyl protoporphyrin [NMPP], the “second step forward rate constant k2” value was 8.3 s⁻¹ in assay [1] and 6.4 s⁻¹ on wild-type ferrochelatase. The results for the “second step reverse rate constant k−2” value (in assay [1]; at wild-type ferrochelatase) were 19.3 s⁻¹ and 24.5 s⁻¹, respectively. Further, the Ki was found to be 1 µM in assay [1] (setting [2]) and 0.003 µM at wild-type ferrochelatase (setting [2]).
